Reference: article PMC5918173, “Characterization of Transglutaminase 2 activity inhibitors in monocytes in vitro and their effect in a mouse model for multiple sclerosis” (PLoS ONE, 2018)

Legend:
[1] = molecular target: T1, TG2-fibronectin (FN42) interaction (Homo sapiens, UniProt P21980); assay: TG2 interaction with fibronectin (FN42) ELISA; assay type: binding; conditions: 5 and 15 μM, with or without 1 mM CaCl2, Fig 2E, 2F
T1 construct: purchased Zedira
T1 sequence (P21980 1-687): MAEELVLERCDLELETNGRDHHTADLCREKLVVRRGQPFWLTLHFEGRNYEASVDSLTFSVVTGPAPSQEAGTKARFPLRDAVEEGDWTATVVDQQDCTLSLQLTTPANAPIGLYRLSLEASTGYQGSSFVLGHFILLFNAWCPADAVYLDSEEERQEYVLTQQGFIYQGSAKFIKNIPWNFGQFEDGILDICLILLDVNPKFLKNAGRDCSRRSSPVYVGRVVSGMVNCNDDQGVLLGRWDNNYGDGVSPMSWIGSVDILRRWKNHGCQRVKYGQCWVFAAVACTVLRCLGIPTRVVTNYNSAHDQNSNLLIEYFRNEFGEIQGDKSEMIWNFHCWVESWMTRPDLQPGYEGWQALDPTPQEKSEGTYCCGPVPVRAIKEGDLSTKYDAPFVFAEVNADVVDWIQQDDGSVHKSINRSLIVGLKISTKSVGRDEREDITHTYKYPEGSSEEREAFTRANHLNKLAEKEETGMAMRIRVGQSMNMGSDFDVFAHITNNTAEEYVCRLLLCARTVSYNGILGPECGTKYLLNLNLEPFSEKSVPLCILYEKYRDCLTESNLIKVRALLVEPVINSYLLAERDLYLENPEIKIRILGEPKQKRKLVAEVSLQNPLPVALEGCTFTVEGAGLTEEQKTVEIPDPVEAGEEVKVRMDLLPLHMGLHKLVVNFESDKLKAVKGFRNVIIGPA
Experimental: To determine the potential effect of BJJF078 and ERW1041E on the interaction of TG2 with fibronectin, ELISA experiments were performed as described previously. Briefly, 96 well ELISA plates (Nunc, Maxisorp) were coated with 100 μg/ml mouse anti his-tag monoclonal antibody (Roche) in PBS at 4°C overnight. This was followed by simultaneous washing and blocking with 0.5% BSA in PBS (3x 10 min). Per well 50 μl of a 10 nM human recombinant TG2 (his-tagged, Zedira) solution in PBS was added. Into each well (triplicates) either DMSO (control, 1% final concentration) or TG2 inhibitors (BJJF078, ERW1041E, final concentration 5 and 15 μM in 1% DMSO) were added. As a positive control similar concentrations of TG53, a small molecule that inhibits the interaction between TG2 and fibronectin was added (kindly provided by Prof D. Matei, Northwestern University, Chicago, USA). […] After 1 h incubation at RT, 50 μl of 10 nM FN42-biotin solution (kindly provided by Prof D. Matei) was added to the wells. After an additional 1 h incubation at RT and washing steps (3x 10 min) with 0.5% BSA in PBS, 100 μl streptavidin-HRPO conjugate (from kit opr001, Covalab) was added and incubated for 1 h at RT. This was followed by another series of washes and the colour reaction started with 100 μl of 3,3′,5,5′ tetramethylbenzidine substrate (TMB, from kit opr001, Covalab). After sufficient colour development (15 min), the reaction was stopped with 1M HCl and absorbance was measured at 450 nm.

[2] = molecular target: T2, recombinant mouse TG2 (mTG2) (Mus musculus, UniProt P21981); assay: Inhibition of recombinant Transglutaminase activity (fluorescent substrate), mouse TG2; assay type: biochemical; conditions: recombinant mouse TG2, Fig 2A
T2 construct: purchased Zedira
T2 sequence (P21981 1-686): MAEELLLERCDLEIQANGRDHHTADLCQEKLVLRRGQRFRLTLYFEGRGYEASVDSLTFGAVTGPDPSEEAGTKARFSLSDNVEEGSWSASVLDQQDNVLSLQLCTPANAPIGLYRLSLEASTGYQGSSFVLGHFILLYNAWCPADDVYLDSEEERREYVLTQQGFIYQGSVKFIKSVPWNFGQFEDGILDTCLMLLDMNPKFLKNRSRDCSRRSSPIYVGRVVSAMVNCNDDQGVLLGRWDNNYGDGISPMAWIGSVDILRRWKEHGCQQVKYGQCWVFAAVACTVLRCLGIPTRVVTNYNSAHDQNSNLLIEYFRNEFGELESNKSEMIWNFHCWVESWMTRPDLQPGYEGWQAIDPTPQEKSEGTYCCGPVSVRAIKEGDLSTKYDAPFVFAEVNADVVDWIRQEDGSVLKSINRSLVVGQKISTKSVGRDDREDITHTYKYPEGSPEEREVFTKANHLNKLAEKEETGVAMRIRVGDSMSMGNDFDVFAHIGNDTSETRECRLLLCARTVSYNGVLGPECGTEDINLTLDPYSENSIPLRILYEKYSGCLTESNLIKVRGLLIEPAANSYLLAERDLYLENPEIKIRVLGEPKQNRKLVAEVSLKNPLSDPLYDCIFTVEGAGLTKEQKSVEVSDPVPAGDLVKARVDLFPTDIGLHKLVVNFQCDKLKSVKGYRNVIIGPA
Experimental: The potency and specificity of TG2 inhibitors was assessed with various recombinant TGs, as previously described. The reaction buffer (50 mM Tris, 100 mM NaCl, 10 mM CaCl2, 5 mM H-Gly-OMe*HCl (glycinemethylestherhydrochloride, Sigma), 5 mM hexadimethinbromide (Sigma), 9.1 mM DTT, pH 7.5) was heated to 37°C in a 96 well plate. Then 50 μM of the TG substrate Abz-NE(CAD-DNP)EQVSPLTLLK-OH (Zedira) was added. 1 μg/ml recombinant TG (human TG1, human (hTG2) / mouse TG2 (mTG2) or human Factor XIII (FXIII); Zedira) were added. The two lyophilized TG2 inhibitors (see Fig 1 for chemical structure) BJJF078 (3,4-Dimethoxy-N-(5-[4-(acryloylamino)piperidine-1-sulfonyl]-naphthalen-1-yl)-benzamide, kindly provided by Dr S. El Alaoui, Covalab, France) and ERW1041E (2-[(3-Bromo-4,5-dihydro-isoxazol-5-ylmethyl)-carbamoyl]-pyrrolidine-1—carboxylic acid quinolin-3-ylmethyl ester, kindly provided by Prof C. Khosla, Stanford University, USA) were dissolved in DMSO (stock solution: 54 mM) and stored at -80°C. These stocks were further diluted and various concentrations of the TG2 inhibitors (0.3 nM to 100 μM), were added to the wells (final DMSO concentration per well: 0.06%). The relative increase in fluorescence emission, correlating with enzymatic activity, was measured over 4 h with a fluorimeter (Excitation: 320nm, emission: 405 nm; Fluostar, GMB).

effect on binding of TG2 to fibronectin (FN42) [1] | IC50 [2] | Compound
did not interfere | 6.8 µM | O=C(NCC1CC(Br)=NO1)C1CCCN1C(=O)OCc1cnc2ccccc2c1 (stereo not shown) [ERW1041E, 2-[(3-Bromo-4,5-dihydro-isoxazol-5-ylmethyl)-carbamoyl]-pyrrolidine-1—carboxylic acid quinolin-3-ylmethyl ester]
did not interfere | 0.054 µM | C=CC(=O)NC1CCN(S(=O)(=O)c2cccc3c(NC(=O)c4ccc(OC)c(OC)c4)cccc23)CC1 [BJJF078, 3,4-Dimethoxy-N-(5-[4-(acryloylamino)piperidine-1-sulfonyl]-naphthalen-1-yl)-benzamide]
